Results from patent publication US9290691B2, “Organic el material-containing solution, method for forming organic el thin film, organic el device comprising organic el thin film, and method for manufacturing organic el display panel” (IDEMITSU KOSAN CO., LTD., priority 2007, dated 2016).

Tests used:
Assay type in all cases: physicochemical
[1] = Solubility Evaluation 1: anthracene compounds in various solvents, visual check; set-up: key to Solubility in Cyclohexanone / Solubility in Toluene / Solubility in Xylene / Solubility in Tetralin / Solubility in Dodecylbenzene / Solubility in Anisole / Solubility in Dioxane / Solubility in Butyl Acetate / Solubility in Methylethylketone / Solubility in N-methylpyrolidone: A: it was confirmed that the compounds were dissolved in the dropped solvents; C: the compounds were not completely dissolved and undissolved residues remained; settings: for Solubility in Anisole / Solubility in Butyl Acetate / Solubility in Cyclohexanone / Solubility in Dioxane / Solubility in Dodecylbenzene / Solubility in Methylethylketone / Solubility in N-methylpyrolidone / Solubility in Tetralin / Solubility in Toluene / Solubility in Xylene: 30 mg compound, 1 g solvent, visual check
Procedure: (§1) 30 mg of each of anthracene compounds 1 to 14 represented by the following formulae was put into a sample bottle, and 1 g of each of various solvents was dropped into the bottle with agitation. By visual check, a case where it was confirmed that the compounds were dissolved in the dropped solvents is marked as A and a case where the compounds were not completely dissolved and undissolved residues remained is marked as C.

[2] = Solvent solubility of naphthacene host compound; settings: aromatic substituent bonded to naphthacene skeleton in para position; solvent not stated
Text: For instance, when an aromatic group as a substituent is bonded to a naphthacene skeleton in para position, the solubility is lowered.

[3] = Solubility Evaluation 2: naphthacene compounds in various solvents, visual check; set-up: key: A: it was confirmed that the compounds were dissolved in the dropped solvents; C: the compounds were not completely dissolved and undissolved residues remained; settings: 30 mg compound, 1 g solvent
Procedure: as §1
Next, naphthacene compounds 15 and 16 were used in place of the anthracene compounds, and the solubility was evaluated in the same manner as the above. Same as in Solubility Evaluation 1, by visual check, a case where it was confirmed that the compounds were dissolved in the dropped solvents is marked as A and a case where the compounds were not completely dissolved and undissolved residues remained is marked as C. Moreover, a case where precipitation was observed after several hours of dissolution is marked as B. Result of solubility evaluation will be shown in Table 3 below.

Solubility in Anisole [1]	Solubility in Butyl Acetate [1]	Solubility in Cyclohexanone [1]	Solubility in Dioxane [1]	Solubility in Dodecylbenzene [1]	Solubility in Methylethylketone [1]	Solubility in N-methylpyrolidone [1]	Solubility in Tetralin [1]	Solubility in Toluene [1]	Solubility in Xylene [1]	solubility [2]	Solubility in Cycloheptanone [3]	Solubility in Cyclohexanone [3]	Solubility in N-methylpyrolidone [3]	Solubility in Toluene [3]	Solubility in Xylene [3]	Structure (SMILES)	dissolution in cyclohexanone (in words) ([1]; cyclohexanone)	dissolution in toluene (in words) ([1]; toluene)
C	C	A	C	C	C	A	C	C	C	–	–	–	–	–	–	c1cc(-c2ccc3ccccc3c2)cc(-c2c3ccccc3c(-c3cccc4ccccc34)c3ccccc23)c1 [Compound 6]	–	–
C	C	A	C	C	C	A	C	C	C	–	–	–	–	–	–	c1ccc(-c2ccc3cc(-c4cccc(-c5c6ccccc6c(-c6ccc7ccccc7c6)c6ccccc56)c4)ccc3c2)cc1 [Compound 8]	–	–
C	C	A	C	C	C	A	C	C	C	–	–	–	–	–	–	c1ccc(-c2ccc3ccc(-c4c5ccccc5c(-c5cccc(-c6ccc7ccccc7c6)c5)c5ccccc45)cc3c2)cc1 [Compound 5]	–	–
C	C	A	A	C	C	A	C	A	A	–	–	–	–	–	–	c1ccc2cc(-c3ccc(-c4c5ccccc5c(-c5ccc(-c6cccc7ccccc67)cc5)c5ccccc45)cc3)ccc2c1 [Compound 7]	–	–
C	C	A	A	C	C	A	C	A	A	–	–	–	–	–	–	c1ccc(-c2cc(-c3ccc4ccccc4c3)cc(-c3c4ccccc4c(-c4ccc5ccccc5c4)c4ccccc34)c2)cc1 [Compound 2]	–	–
C	C	A	C	C	C	A	C	A	A	–	–	–	–	–	–	c1cc(-c2ccc3ccccc3c2)cc(-c2c3ccccc3c(-c3ccc4ccccc4c3)c3ccccc23)c1 [Compound 10]	–	–
C	C	A	A	C	C	A	C	A	A	–	–	–	–	–	–	c1ccc(-c2ccc3cc(-c4cccc(-c5c6ccccc6c(-c6ccc(-c7cccc8ccccc78)cc6)c6ccccc56)c4)ccc3c2)cc1 [Compound 3]	–	–

The remaining lines, values behind:

Structure (SMILES)	Solubility in Anisole [1]	Solubility in Butyl Acetate [1]	Solubility in Cyclohexanone [1]	Solubility in Dioxane [1]	Solubility in Dodecylbenzene [1]	Solubility in Methylethylketone [1]	Solubility in N-methylpyrolidone [1]	Solubility in Tetralin [1]	Solubility in Toluene [1]	Solubility in Xylene [1]	solubility [2]	Solubility in Cycloheptanone [3]	Solubility in Cyclohexanone [3]	Solubility in N-methylpyrolidone [3]	Solubility in Toluene [3]	Solubility in Xylene [3]	dissolution in cyclohexanone (in words) ([1]; cyclohexanone)	dissolution in toluene (in words) ([1]; toluene)
c1cc(-c2ccc3ccccc3c2)cc(-c2c3ccccc3c(-c3ccc4cc(-c5ccc6ccccc6c5)ccc4c3)c3ccccc23)c1 [Compound 4]	C	C	A	C	C	C	A	C	C	C	–	–	–	–	–	–	dissolved	not dissolved
c1ccc(-c2c3ccccc3c(-c3cccc(-c4cccc(-c5c6ccccc6c(-c6ccccc6)c6ccccc56)c4)c3)c3ccccc23)cc1 [Compound 12]	C	C	C	C	C	C	C	C	C	C	–	–	–	–	–	–	–	–
c1ccc2cc(-c3ccc(-c4ccc(-c5c6ccccc6c(-c6ccc7ccccc7c6)c6ccccc56)cc4)c4ccccc34)ccc2c1 [Compound 9]	C	C	A	C	C	C	A	C	C	C	–	–	–	–	–	–	–	–
c1ccc(-c2ccc(-c3c4ccccc4c(-c4ccc(-c5ccccc5)cc4-c4ccccc4)c4cc5ccccc5cc34)c(-c3ccccc3)c2)cc1	–	–	–	–	–	–	–	–	–	–	≤ 0.1 mass %	–	–	–	–	–	–	–
c1ccc2cc(-c3c4ccccc4c(-c4ccc5ccccc5c4)c4ccccc34)ccc2c1 [Compound 11]	C	C	C	C	C	C	C	C	C	C	–	–	–	–	–	–	–	–
c1ccc(-c2ccc(-c3c4ccccc4c(-c4ccc(-c5ccccc5)cc4)c4ccccc34)cc2)cc1 [Compound 13]	C	C	C	C	C	C	C	C	C	C	–	–	–	–	–	–	–	–
c1ccc(-c2cc(-c3ccccc3)c(-c3c4ccccc4c(-c4ccccc4)c4cc5ccccc5cc34)c(-c3ccccc3)c2)cc1 [Compound 16]	–	–	–	–	–	–	–	–	–	–	–	A	A	A	C	C	–	–
c1ccc2cc(-c3c4ccccc4c(-c4ccc(-c5cccc6ccccc56)cc4)c4ccccc34)ccc2c1 [Compound 1]	C	C	A	A	C	C	A	C	A	A	–	–	–	–	–	–	–	–
c1ccc(-c2ccc(-c3ccccc3-c3c4ccccc4c(-c4c5ccccc5c(-c5ccccc5-c5ccc(-c6ccccc6)cc5)c5ccccc45)c4ccccc34)cc2)cc1 [Compound 14]	C	C	A	A	C	C	A	C	A	C	–	–	–	–	–	–	–	–
